In series [1] the test system is genotype 1b (Con-1) HCV replicon. Kind of series: HCV replicon luciferase assay, genotype 1b. The format is cell-based. The following applies: Hepatitis C virus, Huh-7, 72 h, Huh-7 cells with genotype 1b HCV replicon, Renilla luciferase, 3 days incubation; class symbol. The protocol: The cell lines used to evaluate compounds consist of a human hepatocyte derived cell line (Huh-7) that constitutively expresses a genotype 1b (Con-1) HCV replicon or a genotype 1b (Con-1) HCV replicon with an asparagine replacing the cysteine at amino acid 316, or a genotype 2a (JFH-1) replicon, containing a Renilla luciferase reporter gene. These cells were maintained in Dulbecco's modified Eagle medium (DMEM) containing 10% FBS, 100 U/mL penicillin/streptomycin and 1.0 mg/mL G418.
To evaluate compound efficacy, titrated compounds were transferred to sterile 384-well tissue culture treated plates, and the plates were seeded with HCV replicon cells (50 μL at a density of 2.4×10^3 cells/well) in DMEM containing 4% FBS (final DMSO concentration at 0.5%). After 3 days incubation at 37° C., cells were analyzed for Renilla Luciferase activity using the EnduRen substrate (Promega cat #E6485) according to the manufacturer's directions. Briefly, the EnduRen substrate was diluted in DMEM and then added to the plates to a final concentration of 7.5 μM. The plates were incubated for at least 1 h at 37° C. then read on a Viewlux Imager (PerkinElmer) using a luminescence program. The 50% effective concentration (EC50) was calculated using the four-parameter logistic formula noted above.

The test system of series [2] is HCV. The settings on record: cited from earlier work.

Some results are limits rather than exact numbers.

In series [1], `CNC(=O)c1c(-c2ccc(F)cc2)oc2c1cc(-c1cccc(C(=O)NC(C)(C)C)c1)c1c2cc(-c2ccccc2)n1S(C)(=O)=O` [Compound 5004] displayed a half-maximal effective concentration (EC50) of 0.1 to 1 µM.
`CNC(=O)c1c(-c2ccc(F)cc2)oc2c1cc(-c1cccc(C(=O)NC(C)(C)C)c1)c1c2cc(C)n1S(C)(=O)=O` [Compound 5005] returned a 50% effective concentration (EC50) in series [1] of more than 1 µM.
The same measure, in the same setting: the figure for `CNC(=O)c1c(-c2ccc(F)cc2)oc2c1cc(-c1cccc(C(=O)NC(C)(C)c3ccc(Cl)cc3)c1)c1c2ccn1S(C)(=O)=O` [Compound 5006] is less than 0.1 µM; for `CNC(=O)c1c(-c2ccc(F)cc2)oc2c1cc(OC(C)C)c1c2ccn1CC(F)F` [Compound 6001] it is more than 1 µM; for `CCn1ccc2c3oc(-c4ccc(F)cc4)c(C(=O)NC)c3cc(OC(C)C)c21` [Compound 6002] it is more than 1 µM.
Molecule `CCc1c[nH]c2c(OC(C)C)cc3c(C(=O)NC)c(-c4ccc(F)cc4)oc3c12` [Compound 6003] gave an EC50 in series [1] of more than 1 µM.
For `CCN(C)C(=O)c1c(-c2ccc(F)cc2)oc2c1cc(OC(C)C)c1c2ccn1CC` [Compound 6004], in series [1], the EC50 was more than 1 µM.
Still for that read-out and setting: the figure for `CCc1cn(CC)c2c(OC(C)C)cc3c(C(=O)NC)c(-c4ccc(F)cc4)oc3c12` [Compound 6005] is more than 1 µM; for `CCN(CC(C)(C)C)C(=O)c1cccc(-c2cc3c(C(=O)NC)c(-c4ccc(F)cc4)oc3c3ccn(CC)c23)c1` [Compound 6007] it is 0.1 to 1 µM.
Regarding `CNC(=O)c1c(-c2ccc(F)cc2)oc2cc(N(CCO)S(C)(=O)=O)c(C3CC3)cc12` [HCV-796], the hepatic toxicity result in series [2] (extended dosing of the combination regimens) is “hepatic toxicity observed”.
For the molecule alpha-interferon and ribavirin, the sustained efficacy in series [2] (patients, combination therapy) is given as 40 % of patients.
Take pegylated alpha-interferon: in series [2] (recent clinical results, monotherapy), the “efficacy as monotherapy compared with unmodified alpha-interferon” value was “superior to unmodified alpha-interferon”.

A word on the EC50: it is the midpoint of the concentration-response curve. Read a high EC50 as weaker potency.

The values above are taken from patent US9914739B2, “6H-furo[2,3-E]indole compounds for the treatment of hepatitis C” (BRISTOL-MYERS SQUIBB COMPANY, priority 2014, dated 2018).
